# In patent publication US20090023184A1, “Novel Tachykinin Peptides, Precursor Peptides Thereof And Genes Encoding The Same” (SUNTORY LIMITED, priority 1999, published 2009):
# Legend:
# [1] = test system: rectum of the carp; test: Measurement of the rectum constricting activity of the carp (isolated intestine, tension recording); assay type: cell-based; conditions: added to the chamber with the amount corresponding to one head of Octopus vulgaris; FIGS. 3 and 4
# Procedure: (§1) The rectum constricting activity of the carp was performed as follow. That is, the intestine of the carp was excised, and the both ends thereof were fastened with a cotton thread. Then, one end thereof was fixed to a sample chamber (2 ml capacity) and another end was fixed to a transducer to obtain a specimen for the examination. The samples to be measured were dissolved into the physiological saline solution, and added to the sample chamber. The changes of tension of the intestine by constriction were recorded.
# [2] = test system: ileum of the guinea pig; test: Measurement of the ileum constricting activity of the guinea pig (isolated ileum, tension recording); assay type: cell-based; conditions: concentration of 1×10^−8 M in chamber, 37° C. physiological saline; FIGS. 5 and 6
# Procedure: The ileum constricting activity of the guinea pig was performed in accordance with a method by Champagne et al. (Champagne D. E. et al., Proc. Natl. Acad. Sci. USA., 91, 138-142, 1994).
# as §1, with “ileum” for “rectum constricting activity”, “guinea pig” for “carp was performed as follow. That is, the intestine of the carp”, “(5” for “(2”, “examination. The inside of the sample chamber was maintained constantly with 37° C. physiological saline.” for “examination.”, “ileum” for “intestine”
Substance,constricting activity against the rectum of the carp [1],constricting activity against the ileum of the guinea pig [2]
"H-Lys-Pro-Pro-Ser-Ser-Ser-Glu-Phe-Val-Gly-Leu-Met-NH2 (H-KPPSSSEFVGLM-NH2) [Compound (1), tachykinin neuropeptide of Octopus vulgaris posterior salivary gland, isolated from Fraction A and also synthesized]",constricted strongly,constricted strongly
"H-Lys-Pro-Pro-Ser-Ser-Ser-Glu-Phe-Ile-Gly-Leu-Met-NH2 (H-KPPSSSEFIGLM-NH2) [Compound (2), tachykinin neuropeptide of Octopus vulgaris posterior salivary gland, isolated from Fraction B and also synthesized]",constricted strongly,constricted strongly
